Converted amounts (≈) assume the structure as drawn. Blank lines part the entries; values can stand above or below the molecule they belong to.
How the values were obtained:
[1] = tested on: prostate-specific antigen (PSA) expression; assay: Inhibition of hormone-dependent expression of PSA in VCaP cells (Western blot); type: cell-based; settings: 1 nM DHT, 24 h
Description: In addition to this, we evaluated hormone-dependent expression of prostate-specific antigen (PSA) in VCaP cells (see the Supporting Information).
(§1) VCaP cells, obtained from the American Type Culture Collection, were maintained in Dulbecco’s Modified Eagles Medium (DMEM) supplemented with 10% foetal bovine serum. Cells were maintained at 37°C without antibiotics in a humidified atmosphere
(§2) Inhibition of hormone-dependent expression of prostate specific antigen (PSA):
(§3) VCaP prostate cells were treated with 1 nM DHT in the absence or presence of inhibitor. After 24 hours cells were harvested and PSA detected by Western blotting and normalised against β-actin.

androgen receptor (AR) = molecular target: T1, androgen receptor (AR) (Homo sapiens, UniProt P10275); settings: for activity in VCaP GRE2-luciferase assay (in words) / IC50: VCaP cells, 1 nM DHT; for Ligand Efficiency (LE): from VCaP GRE2-luciferase IC50; for Lipophilic Ligand Efficiency (LLE): from VCaP GRE2-luciferase IC50 and cLogP; for IC50: read-out: VCaP GRE2-luciferase IC50, 24 h, 0–30 µM compound
T1 sequence (P10275 1-920): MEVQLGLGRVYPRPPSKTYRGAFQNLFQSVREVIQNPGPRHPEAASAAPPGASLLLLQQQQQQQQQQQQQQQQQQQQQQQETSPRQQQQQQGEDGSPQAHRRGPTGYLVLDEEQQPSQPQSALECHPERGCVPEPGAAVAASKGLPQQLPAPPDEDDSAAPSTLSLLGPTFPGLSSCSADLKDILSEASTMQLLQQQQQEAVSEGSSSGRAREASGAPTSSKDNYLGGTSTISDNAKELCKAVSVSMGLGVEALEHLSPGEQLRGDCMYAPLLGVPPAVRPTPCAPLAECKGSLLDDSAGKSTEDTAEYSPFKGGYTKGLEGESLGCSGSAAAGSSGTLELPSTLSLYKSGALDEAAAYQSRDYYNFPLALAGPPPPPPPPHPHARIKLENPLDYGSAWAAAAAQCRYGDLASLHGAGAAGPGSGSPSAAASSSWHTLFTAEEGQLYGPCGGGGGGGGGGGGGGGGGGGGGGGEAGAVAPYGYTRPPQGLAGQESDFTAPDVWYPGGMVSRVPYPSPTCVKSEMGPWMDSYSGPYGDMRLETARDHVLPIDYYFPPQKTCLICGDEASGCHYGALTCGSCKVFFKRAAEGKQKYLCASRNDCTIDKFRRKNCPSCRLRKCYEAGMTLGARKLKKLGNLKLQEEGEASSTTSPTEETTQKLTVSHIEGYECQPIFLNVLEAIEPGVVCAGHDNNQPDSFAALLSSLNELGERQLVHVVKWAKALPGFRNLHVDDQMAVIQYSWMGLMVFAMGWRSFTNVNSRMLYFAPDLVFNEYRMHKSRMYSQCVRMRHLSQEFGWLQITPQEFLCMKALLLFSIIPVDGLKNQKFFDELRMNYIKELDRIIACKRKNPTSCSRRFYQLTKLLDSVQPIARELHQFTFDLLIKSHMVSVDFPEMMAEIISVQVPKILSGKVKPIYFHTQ
Description: as §1
Transient transfection and Luciferase Activity Assay:
Cells at 70–80% confluence in 24 well plates, were transferred to DMEM
300ng/well of the firefly reporter plasmid, GRE2-TATA-luc using JetPEI (PolyPLUS Transfection) according to the manufacturers’ protocol.
replaced with fresh DMEM +5% CSS containing either DMSO (vehicle control) or 0– 30 µM small molecules together with 1nM DHT. Twenty four hours later, medium was aspirated, cells were washed with PBS and extracted with Passive Lysis Buffer
Cell debris was removed by centrifugation at 13,000 xg for 5min and supernatants collected. Luciferase activity was measured in triplicate, using an in-house luciferase assay buffer (13 mM MgSO4 7H2O, 30 mM
amount of total cellular protein.
as §2, §3
Luciferase activity in cells treated with small molecules was determined as a percentage of the untreated control, which was set at 100%. Plots of activity against small molecule concentration (log) were analysed in GraphPad PRISM 5 and IC50 values for each small molecule determined.

Plasma protein binding = type: in vitro ADME; settings: mouse
[2] = Thermodynamic aqueous solubility; type: physicochemical
in vitro = in vitro ADME; settings: human, Caco-2
From the text: (§4) DMPK and physicochemical data were generated by Cyprotex Ltd, Alderley Park, Macclesfield, UK and Pharmaron Inc, Ningbo, China.

Caco2 cell = assay: in vitro; type: in vitro ADME
From the text: as §4

[3] = Human liver microsome stability; type: in vitro ADME; settings: human liver microsomes
From the text: PSA expression (%inhibition) 34%
Plots of activity against
values for each small molecule determined.
Macclesfield, UK and Pharmaron Inc, Ningbo, China.

hERG channel = hERG channel (Homo sapiens, UniProt Q12809); assay: hERG channel inhibition, Q-patch clamp assay
AR-v (ARNTD–DBD) = molecular target: T2, AR-v (ARNTD–DBD) (Homo sapiens, UniProt P10275); assay: AR-v splice variant activity in PC3 cells transfected with ARNTD–DBD expression plasmid and GRE2-luciferase reporter; settings: PC-3, read-out: inhibition of AR-v activity
T2 sequence (P10275 1-632 limits assumed): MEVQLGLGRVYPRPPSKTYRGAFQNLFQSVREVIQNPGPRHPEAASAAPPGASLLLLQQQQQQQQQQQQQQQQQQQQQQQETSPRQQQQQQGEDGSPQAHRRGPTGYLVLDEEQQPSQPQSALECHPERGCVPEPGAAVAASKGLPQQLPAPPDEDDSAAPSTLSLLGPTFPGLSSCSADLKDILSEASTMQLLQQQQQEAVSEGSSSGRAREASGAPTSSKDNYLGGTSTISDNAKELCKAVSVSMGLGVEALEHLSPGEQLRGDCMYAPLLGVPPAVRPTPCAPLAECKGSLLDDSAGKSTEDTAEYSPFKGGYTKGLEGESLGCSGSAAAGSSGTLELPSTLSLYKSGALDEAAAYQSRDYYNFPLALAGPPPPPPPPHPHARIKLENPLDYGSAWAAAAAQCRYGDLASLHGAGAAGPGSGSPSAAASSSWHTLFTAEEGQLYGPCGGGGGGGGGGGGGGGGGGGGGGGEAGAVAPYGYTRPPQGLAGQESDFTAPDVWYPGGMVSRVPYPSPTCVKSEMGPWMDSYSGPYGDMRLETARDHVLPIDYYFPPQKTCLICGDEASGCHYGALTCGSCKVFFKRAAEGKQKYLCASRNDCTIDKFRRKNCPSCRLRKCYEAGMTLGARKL
Description: To this end, AR-v splice variant activity was determined through transfection of PC3 cells with an ARNTD–DBD expression plasmid and a GRE2-luciferase reporter gene (Figure 3).[43]

CYP 3A4 = CYP 3A4 (Homo sapiens, UniProt P08684); assay: CYP450 inhibition (3A4); type: in vitro ADME
CYP 2D6 = CYP 2D6 (Homo sapiens, UniProt P10635); assay: CYP450 inhibition (2D6); type: in vitro ADME
[4] = In vivo pharmacokinetic profile in male CD-1 mice; settings: mouse
From the text: Encouraged by the promising in vitro profile, compound 16 was advanced, and a pharmacokinetic (PK) profile was obtained in male CD-1 mice (Table 6).

CYP 2D6, sequence (P10635 whole entry): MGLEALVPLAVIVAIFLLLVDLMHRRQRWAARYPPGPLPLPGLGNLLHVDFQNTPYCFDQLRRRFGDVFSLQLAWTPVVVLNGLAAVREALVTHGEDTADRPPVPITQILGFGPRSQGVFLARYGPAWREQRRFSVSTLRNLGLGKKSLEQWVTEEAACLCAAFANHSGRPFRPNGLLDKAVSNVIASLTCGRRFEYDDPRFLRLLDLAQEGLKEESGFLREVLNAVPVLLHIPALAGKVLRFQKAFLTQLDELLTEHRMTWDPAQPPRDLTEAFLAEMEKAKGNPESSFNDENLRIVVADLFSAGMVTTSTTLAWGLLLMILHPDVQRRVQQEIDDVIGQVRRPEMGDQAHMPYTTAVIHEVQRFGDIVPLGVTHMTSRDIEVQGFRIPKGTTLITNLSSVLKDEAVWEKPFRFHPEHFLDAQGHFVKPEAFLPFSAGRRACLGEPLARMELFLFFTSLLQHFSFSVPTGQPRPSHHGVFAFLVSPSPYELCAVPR
hERG channel, sequence (Q12809 whole entry, canonical isoform): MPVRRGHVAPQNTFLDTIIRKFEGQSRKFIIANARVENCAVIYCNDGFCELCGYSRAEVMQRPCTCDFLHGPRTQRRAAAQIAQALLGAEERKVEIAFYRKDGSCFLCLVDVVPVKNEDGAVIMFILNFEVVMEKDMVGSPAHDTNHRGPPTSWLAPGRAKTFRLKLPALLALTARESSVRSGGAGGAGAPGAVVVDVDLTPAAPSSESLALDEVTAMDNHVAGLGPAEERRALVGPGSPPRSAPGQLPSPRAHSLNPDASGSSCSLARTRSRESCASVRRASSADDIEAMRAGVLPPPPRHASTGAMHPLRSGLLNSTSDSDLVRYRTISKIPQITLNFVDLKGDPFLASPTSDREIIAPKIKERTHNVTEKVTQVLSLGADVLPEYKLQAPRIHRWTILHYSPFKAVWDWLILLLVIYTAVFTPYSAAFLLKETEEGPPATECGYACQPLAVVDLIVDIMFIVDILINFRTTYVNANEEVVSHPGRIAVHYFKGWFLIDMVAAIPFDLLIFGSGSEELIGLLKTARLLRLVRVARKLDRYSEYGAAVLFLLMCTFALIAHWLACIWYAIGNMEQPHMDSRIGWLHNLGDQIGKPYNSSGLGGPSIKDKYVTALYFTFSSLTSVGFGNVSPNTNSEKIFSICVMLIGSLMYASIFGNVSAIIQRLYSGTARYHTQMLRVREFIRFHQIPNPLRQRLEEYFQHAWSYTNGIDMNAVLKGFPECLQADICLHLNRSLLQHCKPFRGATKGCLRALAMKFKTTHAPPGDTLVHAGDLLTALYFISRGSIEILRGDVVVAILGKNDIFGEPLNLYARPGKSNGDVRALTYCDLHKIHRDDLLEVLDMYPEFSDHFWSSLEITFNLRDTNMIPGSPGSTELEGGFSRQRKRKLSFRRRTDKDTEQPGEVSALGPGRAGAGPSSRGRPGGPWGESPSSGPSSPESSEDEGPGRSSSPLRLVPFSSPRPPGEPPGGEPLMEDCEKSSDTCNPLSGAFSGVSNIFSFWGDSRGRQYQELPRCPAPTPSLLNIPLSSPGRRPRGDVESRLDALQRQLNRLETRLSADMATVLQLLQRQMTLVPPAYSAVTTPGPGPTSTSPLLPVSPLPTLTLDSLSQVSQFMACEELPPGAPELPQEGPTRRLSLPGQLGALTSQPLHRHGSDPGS
CYP 3A4, sequence (P08684 whole entry): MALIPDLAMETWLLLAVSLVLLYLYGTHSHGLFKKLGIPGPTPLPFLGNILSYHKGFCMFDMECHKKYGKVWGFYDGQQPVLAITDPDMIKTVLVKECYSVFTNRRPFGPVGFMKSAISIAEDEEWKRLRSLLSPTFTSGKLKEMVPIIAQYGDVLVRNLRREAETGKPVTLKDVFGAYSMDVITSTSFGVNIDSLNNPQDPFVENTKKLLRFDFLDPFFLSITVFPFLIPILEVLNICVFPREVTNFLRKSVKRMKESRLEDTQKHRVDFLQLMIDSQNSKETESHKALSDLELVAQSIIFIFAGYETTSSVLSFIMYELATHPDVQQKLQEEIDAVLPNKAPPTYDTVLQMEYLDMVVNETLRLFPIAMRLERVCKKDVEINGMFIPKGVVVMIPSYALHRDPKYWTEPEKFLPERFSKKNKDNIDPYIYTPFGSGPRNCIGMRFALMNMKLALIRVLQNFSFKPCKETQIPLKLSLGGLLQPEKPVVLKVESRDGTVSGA

activity in VCaP GRE2-luciferase assay (in words) (androgen receptor (AR)): inactive | Ligand Efficiency (LE) (androgen receptor (AR)): 0.52 | Lipophilic Ligand Efficiency (LLE) (androgen receptor (AR)): 5.6 | IC50 (androgen receptor (AR)): > 30 µM
Structure (SMILES): Cn1ncc2cc(-c3cc(C(N)=O)ccc3F)ccc21 [Compound 44]

Ligand Efficiency (LE) (androgen receptor (AR)): 0.46 | Lipophilic Ligand Efficiency (LLE) (androgen receptor (AR)): 6.2 | IC50 (androgen receptor (AR)): 0.94 µM
Structure (SMILES): Cn1ncc2cc(-c3cc(C(N)=O)ccc3NCc3ccccc3)ccc21 [Compound 52]

Ligand Efficiency (LE) (androgen receptor (AR)): 0.43 | Lipophilic Ligand Efficiency (LLE) (androgen receptor (AR)): 7.5 | IC50 (androgen receptor (AR)): 0.8 µM
Structure (SMILES): Cn1ncc2cc(-c3cc(C(N)=O)ccc3NCCCN3CCOCC3)ccc21 [Compound 56]

Ligand Efficiency (LE) (androgen receptor (AR)): 0.60 | IC50 (androgen receptor (AR)): 0.26 µM
Structure (SMILES): CSc1ccc(C(=O)N2CCOCC2)cc1-c1cncnc1 [Compound 60]

Ligand Efficiency (LE) (androgen receptor (AR)): 0.60 | Lipophilic Ligand Efficiency (LLE) (androgen receptor (AR)): 7.3 | IC50 (androgen receptor (AR)): 0.24 µM
Structure (SMILES): CSc1c(F)cc(C(N)=O)cc1-c1ccc2c(cnn2C)c1 [Compound 38]

activity in VCaP GRE2-luciferase assay (in words) (androgen receptor (AR)): inactive | Ligand Efficiency (LE) (androgen receptor (AR)): 0.54 | Lipophilic Ligand Efficiency (LLE) (androgen receptor (AR)): 4.9 | IC50 (androgen receptor (AR)): > 30 µM
Structure (SMILES): CSc1ccc(C(N)=O)cc1-c1cccc(O)c1F [Compound 31]

Second part, the molecule before the results:

Structure (SMILES): CC(C)(c1ccc(OCC(O)CO)cc1)c1ccc(OCC(O)CCl)cc1 (stereo not drawn) [EPI-001, reference compound]
PSA expression (% inhibition) ([1]; 50 μM): 19%

Structure (SMILES): CSc1ccc(C(N)=O)cc1-c1cncnc1 [Compound 24]
Ligand Efficiency (LE) (androgen receptor (AR)): 0.77 | Lipophilic Ligand Efficiency (LLE) (androgen receptor (AR)): 8.2 | IC50 (androgen receptor (AR)): 0.27 µM

Structure (SMILES): CSc1ccc(C(N)=O)cc1-c1ccc2c(cnn2C)c1 [Compound 16]
fraction unbound (Plasma protein binding): 0.069 | increase in potency over initial hit compound 7 (androgen receptor (AR); VCaP GRE2-luciferase IC50 ratio): 60 fold | Lipophilic Ligand Efficiency (LLE) (androgen receptor (AR)): 4.7 | IC50 (androgen receptor (AR)): 0.12 µM | solubility [2]: 2.6 µM (≈ 0.773 µg/mL) | Papp A→B (in vitro; apical to basolateral, read-out: Caco2 permeability Papp A2B): 331 nm/s | Papp B→A (in vitro; basolateral to apical, read-out: Caco2 permeability Papp B2A): 394 nm/s | efflux ratio (in vitro; read-out: Caco2 efflux ratio): 1.2 | Caco2 permeability Papp A2B (Caco2 cell; apical to basolateral): 33.1 nm/s | Caco2 permeability Papp B2A (Caco2 cell; basolateral to apical): 39.4 nm/s | microsomal CLint ([3]; read-out: HLM CLint): 25.6 µL/min/mg | half-life ([3]; read-out: HLM t1/2): 54 min | hERG channel inhibition (in words) (hERG channel; Q-patch clamp assay): no hERG channel inhibition | IC50 (hERG channel; read-out: hERG IC50): > 10 µM | inhibition at 10 µM (AR-v (ARNTD–DBD)): 35% | PSA expression (% inhibition) ([1]; 10 μM): 34% | CYP450 inhibition, 3A4 isoform (in words) (CYP 3A4): no inhibition | IC50 (CYP 3A4): > 25 µM | CYP450 inhibition, 2D6 isoform (in words) (CYP 2D6): no inhibition | IC50 (CYP 2D6): > 25 µM | AUC0–t ([4]; iv 1 mg/kg): 0.131 µg·h/mL | AUC0–∞ ([4]; iv 1 mg/kg): 0.132 µg·h/mL | CL ([4]; iv 1 mg/kg): 126 mL min^–1 kg^–1 | Cmax ([4]; iv 1 mg/kg): 0.432 µg/mL | Vss_obs ([4]; iv 1 mg/kg): 1.38 L/kg | t1/2 ([4]; iv 1 mg/kg): 17.4 min | AUC0–t ([4]; po 10 mg/kg): 0.173 µg·h/mL | AUC0–∞ ([4]; po 10 mg/kg): 0.208 µg·h/mL | Cmax ([4]; po 10 mg/kg): 0.195 µg/mL | F (oral bioavailability) ([4]; po 10 mg/kg): 16% | Tmax ([4]; po 10 mg/kg): 0.25 | t1/2 ([4]; po 10 mg/kg): 240 min

Structure (SMILES): CSc1ccc(C(N)=O)cc1-c1ccc2[nH]ncc2c1 [Compound 12]
Ligand Efficiency (LE) (androgen receptor (AR)): 0.59 | Lipophilic Ligand Efficiency (LLE) (androgen receptor (AR)): 6.6 | IC50 (androgen receptor (AR)): 0.7 µM

Structure (SMILES): CSc1ccc(C(N)=O)cc1-c1ccc[nH]1 [Compound 11]
activity in VCaP GRE2-luciferase assay (in words) (androgen receptor (AR)): no activity | Lipophilic Ligand Efficiency (LLE) (androgen receptor (AR)): 5.8 | IC50 (androgen receptor (AR)): > 30 µM

From article PMC10726465, “Synthesis and Evaluation of Small Molecule Inhibitors of the Androgen Receptor N-Terminal Domain” (ACS Medicinal Chemistry Letters, 2023)
